pKd: −log10 of the molar value. Values after ≈ are worked out from the molar mass of the structure shown. Active and inactive are the calls of the source. The rule behind the calls is not given here.
Tests used:
[1] = Lipophilicity, logD of compound at pH 7.4 by shake flask method; assay type: physicochemical; settings: buffer
[2] = Metabolic stability in rat hepatocytes assessed as intrinsic clearance measured per 10^6 cells; assay type: ADME, cell-based, Hepatocyte
cells = settings: Homo sapiens, HCT116-MTAP null, 120 h, read-out: pGI50 (converted)
HCT-116 = assay: cells; settings: Homo sapiens, HCT-116, 120 h, read-out: pGI50 (converted)
[3] = Metabolic stability in human liver microsomes assessed as intrinsic clearance; assay type: ADME, Microsome
[4] = biological target: S-adenosylmethionine synthase isoform type-2 (Homo sapiens, UniProt P31153); assay: Binding affinity to MAT2a (unknown origin) assessed as dissociation constant by ITC analysis
PXR = biological target: T1, PXR (Homo sapiens, UniProt O75469); assay: Activation of human PXR assessed as fold change at 10 uM relative to DMSO; assay type: toxicity; settings: read-out: FC
T1 sequence (O75469 whole entry): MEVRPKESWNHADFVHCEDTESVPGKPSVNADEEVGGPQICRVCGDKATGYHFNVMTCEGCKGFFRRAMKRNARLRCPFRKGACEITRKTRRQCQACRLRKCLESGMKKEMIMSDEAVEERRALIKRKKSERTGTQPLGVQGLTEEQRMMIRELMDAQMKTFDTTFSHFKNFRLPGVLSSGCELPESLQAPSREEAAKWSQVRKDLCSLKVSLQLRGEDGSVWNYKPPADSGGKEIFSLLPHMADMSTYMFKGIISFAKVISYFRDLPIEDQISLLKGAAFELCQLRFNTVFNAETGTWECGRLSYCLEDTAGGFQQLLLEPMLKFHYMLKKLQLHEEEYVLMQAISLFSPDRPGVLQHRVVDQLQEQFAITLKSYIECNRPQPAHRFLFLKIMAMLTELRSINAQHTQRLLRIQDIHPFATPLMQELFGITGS

[5] = Oral bioavailability in mouse at 1 mg/kg; assay type: ADME, organism-based; settings: in vivo
[6] = Half life in rat at 1 mg/kg, po or 0.5 mg/kg, iv; assay type: ADME, organism-based; settings: in vivo
[7] = Volume of distribution at steady state in mouse at 1 mg/kg, po or 0.5 mg/kg, iv; assay type: ADME, organism-based; settings: in vivo
[8] = Plasma protein binding in human assessed as free fraction by equilibrium dialysis; assay type: ADME, cell-free
[9] = Apparent permeability in human Caco-2 cells at 10 uM; assay type: ADME, cell-based
[10] = Solubility in simulated gastric fluid at pH 1; assay type: ADME
[11] = Plasma protein binding in rat assessed as free fraction by equilibrium dialysis; assay type: ADME, cell-free
[12] = Plasma protein binding in dog assessed as free fraction by equilibrium dialysis; assay type: ADME, cell-free, Canis lupus familiaris
[13] = Oral bioavailability in rat at 1 mg/kg; assay type: ADME, organism-based; settings: in vivo
animal or person [14] = settings: Mus musculus, NCR nude, HCT116-MTAP null, po, read-out: INH
[15] = Unbound brain-to-plasma concentration ratio in rat; assay type: ADME, cell-free; settings: read-out: K(p,uu,brain)
[16] = Plasma protein binding in mouse assessed as free fraction by equilibrium dialysis; assay type: ADME, cell-free
HCT116-MTAP null = assay: Antitumor activity against human HCT116-MTAP null cells xenografted in NCR nude mouse assessed as reduction in tumor volume at 20 mg/kg, po administered twice daily for 24 days and measured twice weekly; assay type: functional, organism-based; settings: time 24.0 day
animal or person [17] = settings: Mus musculus, NCR nude, HCT116-MTAP null, po, read-out: INH; remark: listed apart in the source
[18] = Intrinsic clearance in mouse hepatocytes measured per 10^6 cells; assay type: ADME, cell-based, Hepatocyte; settings: read-out: CLH
[19] = Aqueous solubility in phosphate buffer at pH 7.4 measured after 24 hrs; assay type: physicochemical
[20] = Volume of distribution at steady state in rat at 1 mg/kg, po or 0.5 mg/kg, iv; assay type: ADME, organism-based; settings: in vivo
[21] = Half life in mouse at 1 mg/kg, po or 0.5 mg/kg, iv; assay type: ADME, organism-based; settings: in vivo
[22] = Solubility in FeSSIF at pH 5; assay type: ADME
[23] = Unbound fraction in nude mouse plasma at 30 mg/kg, po measured after 24 hrs; assay type: ADME, organism-based
NCI-H441 = assay: Antiproliferative activity against human NCI-H441 cells harboring MTAP knockout; assay type: functional, cell-based
[24] = Solubility in FaSSIF at pH 6.5; assay type: ADME

Chain of S-adenosylmethionine synthase isoform type-2 (P31153 whole entry, canonical isoform): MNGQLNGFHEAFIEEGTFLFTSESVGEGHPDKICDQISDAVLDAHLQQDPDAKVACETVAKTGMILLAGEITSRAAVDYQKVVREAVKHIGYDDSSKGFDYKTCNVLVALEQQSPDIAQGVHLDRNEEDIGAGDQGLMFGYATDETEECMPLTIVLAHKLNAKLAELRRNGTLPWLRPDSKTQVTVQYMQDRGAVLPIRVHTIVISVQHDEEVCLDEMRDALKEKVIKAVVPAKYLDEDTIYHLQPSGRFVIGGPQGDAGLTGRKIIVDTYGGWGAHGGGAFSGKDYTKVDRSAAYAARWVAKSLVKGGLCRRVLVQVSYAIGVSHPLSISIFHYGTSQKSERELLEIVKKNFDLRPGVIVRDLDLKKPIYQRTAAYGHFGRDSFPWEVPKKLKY

Cc1ccc(-n2c(=O)c(-c3ccc4nn(C)cc4c3)cc3[nH]nc(C4CC4)c32)cn1
logD [1]: 2.2 | hepatocyte CLint [2]: < 1 µL/min/1e6 cells

COc1ccc(-c2c(Nc3ccccn3)[nH]c3c(C4=CCCCC4)c(-c4ccccc4)nn3c2=O)cc1
GI50 (cells): 501 nM | GI50 (HCT-116): 1580 nM

O=c1ccc2[nH]nc(C3CC3)c2n1-c1ccc(OC(F)F)cc1
logD [1]: 2.1 | hepatocyte CLint [2]: 1 µL/min/1e6 cells | microsomal CLint [3]: < 3 µL/min/mg

CCc1n[nH]c2cc(-c3ccc4nn(C)cc4c3)c(=O)n(-c3ccc(OC(F)F)cc3)c12
logD [1]: 3.1 | hepatocyte CLint [2]: < 1 µL/min/1e6 cells

Cc1nc2ccc(-c3cc4[nH]nc(C5CC5)c4n(-c4ccc(OC(F)F)cc4)c3=O)cc2n1C
logD [1]: 3.5 | hepatocyte CLint [2]: < 2 µL/min/1e6 cells

Cn1cc2cc(-c3cc4[nH]nc(C5CC5)c4n(-c4ccc(OC(F)F)cn4)c3=O)ccc2n1
logD [1]: 2.5 | hepatocyte CLint [2]: 2 µL/min/1e6 cells

COc1ccc(-c2nccc3[nH]nc(C4CC4)c23)cc1
logD [1]: 3.3 | hepatocyte CLint [2]: 38 µL/min/1e6 cells | microsomal CLint [3]: 89 µL/min/mg

CNc1ccc(-n2c(=O)c(-c3ccc4nn(C)cc4c3)cc3[nH]nc(C4CC4)c32)cn1
logD [1]: 2.3 | hepatocyte CLint [2]: < 1 µL/min/1e6 cells

COc1ccc(-c2cc3[nH]nc(C4CC4)c3c(-c3ccc(OC(F)F)cc3)n2)cc1
logD [1]: > 4.5 | hepatocyte CLint [2]: 26 µL/min/1e6 cells | microsomal CLint [3]: 21 µL/min/mg

FC(F)Oc1ccc(-c2nccc3[nH]nc(C4CC4)c23)cc1
logD [1]: 3.8 | hepatocyte CLint [2]: 20 µL/min/1e6 cells | microsomal CLint [3]: 54 µL/min/mg

O=c1c(-c2ccccc2)cc2[nH]nc(C3CC3)c2n1-c1ccc(OC(F)F)cc1
logD [1]: 4 | hepatocyte CLint [2]: 14 µL/min/1e6 cells

CN(C)CCc1nnc2cc(-c3ccccc3)c3cc(Cl)ccc3n12
pKd [4]: 6.77

Cc1ccc(-n2c(=O)c(-c3ccc4nn(C)cc4c3)cc3[nH]nc(C4CC4)c32)nc1
logD [1]: 2.2 | hepatocyte CLint [2]: 5 µL/min/1e6 cells

COc1ccc(-c2c3c(C4CC4)n[nH]c3cc[n+]2[O-])cc1
logD [1]: 1.3 | hepatocyte CLint [2]: < 1 µL/min/1e6 cells | microsomal CLint [3]: < 3 µL/min/mg

COc1ccc(-c2cc3[nH]nc(C4CC4)c3n(-c3ccc(OC(F)F)cc3)c2=O)cn1
logD [1]: 3.5 | hepatocyte CLint [2]: 3 µL/min/1e6 cells

Cc1ccc(-n2c(=O)c(-c3ccc4nn(C)cc4c3)cc3[nH]nc(C4CC4)c32)cc1
logD [1]: 3.3 | hepatocyte CLint [2]: 25 µL/min/1e6 cells

Cc1ncc(-n2c(=O)c(-c3ccc4nn(C)cc4c3)cc3[nH]nc(C4CC4)c32)cn1
logD [1]: 1.6 | hepatocyte CLint [2]: < 1 µL/min/1e6 cells

Cn1cc2ccc(-c3cc4[nH]nc(C5CC5)c4n(-c4ccc(OC(F)F)cc4)c3=O)cc2n1
logD [1]: 3.4 | hepatocyte CLint [2]: 25 µL/min/1e6 cells

Cn1cc(-c2cc3[nH]nc(C4CC4)c3n(-c3ccc(OC(F)F)cc3)c2=O)ccc1=O
logD [1]: 2 | hepatocyte CLint [2]: < 1 µL/min/1e6 cells

Cn1nnc2ccc(-c3cc4[nH]nc(C5CC5)c4n(-c4ccc(OC(F)F)cc4)c3=O)cc21
logD [1]: 3.1 | hepatocyte CLint [2]: < 1 µL/min/1e6 cells

CCc1ccc(-n2c(=O)c(-c3ccc4nn(C)cc4c3)cc3[nH]nc(C4CC4)c32)cn1
logD [1]: 2.4 | hepatocyte CLint [2]: 19 µL/min/1e6 cells

O=c1c(-c2ccc(O)cc2)cc2[nH]nc(C3CC3)c2n1-c1ccc(OC(F)F)cc1
logD [1]: 3.4 | hepatocyte CLint [2]: 2 µL/min/1e6 cells

Cn1cc2cc(-c3cc4[nH]nc(C5CC5)c4n(-c4ccc(OC(F)F)nc4)c3=O)ccc2n1
logD [1]: 3 | hepatocyte CLint [2]: < 1 µL/min/1e6 cells

COc1ccc(-n2cc3cnc(NCC(F)(F)F)nc3c(-c3ccc(Br)cc3)c2=O)cc1
fold induction at 10 µM (PXR): 25

COc1ccc(-c2cc3[nH]nc(C4CC4)c3n(-c3ccc(OC(F)F)cc3)c2=O)nc1
logD [1]: 3.4 | hepatocyte CLint [2]: 7 µL/min/1e6 cells

Cn1cc2cc(-c3cc4[nH]nc(C5CC5)c4n(-c4ccc(OC(F)F)cc4)c3=O)ccc2n1
bioavailability [5]: 100% | half-life [6]: 6.3 h | Vdss [7]: 5.5 L/kg | fraction unbound [8]: 0.032 | Papp at 10 µM [9]: 9.4 ×10⁻⁶ cm/s | solubility [10]: 70.4 µM (≈ 31.5 µg/mL) | fraction unbound [11]: 0.006 | logD [1]: 3.4 | fraction unbound [12]: 0.12 | bioavailability [13]: 100% | inhibition in vivo at 20 mg/kg (animal or person [14]): > 90% | Kp uu [15]: 0.03 | fraction unbound [16]: 0.03 | Activity (HCT116-MTAP null): Active | hepatocyte CLint [2]: < 1 µL/min/1e6 cells | inhibition in vivo at 20 mg/kg (animal or person [17]): > 90% | hepatocyte CLint [18]: 1.4 µL/min/1e6 cells | solubility at 24 h [19]: 3.2 µM (≈ 1.43 µg/mL) | Vdss [20]: 0.8 L/kg | half-life [21]: 3 h | GI50 (cells): 79.4 nM | solubility [22]: 11.2 µM (≈ 5.01 µg/mL) | fraction unbound at 24 h [23]: 0.029 | Activity (NCI-H441): Active | solubility [24]: 3.3 µM (≈ 1.48 µg/mL)

Cn1cc2cc(-c3cc4[nH]nc(C5CC5)c4n(-c4ccc(Cl)cc4)c3=O)ccc2n1
logD [1]: 3.4 | hepatocyte CLint [2]: 5 µL/min/1e6 cells

N#Cc1cc2[nH]nc(C3CC3)c2c(-c2ccc(OC(F)F)cc2)n1
logD [1]: 3.9 | hepatocyte CLint [2]: 5 µL/min/1e6 cells | microsomal CLint [3]: < 3 µL/min/mg

Cn1cc2cc(-c3cc4[nH]nc([C@@H]5CCOC5)c4n(-c4ccc(OC(F)F)cc4)c3=O)ccc2n1
logD [1]: 2.5 | hepatocyte CLint [2]: 4 µL/min/1e6 cells

Cn1cc2cc(-c3cc4[nH]nc(C5CC5)c4n(-c4ccc(CO)cc4)c3=O)ccc2n1
logD [1]: 2.2 | hepatocyte CLint [2]: 35 µL/min/1e6 cells

COc1ccc(-n2c(=O)c(-c3ccc4nn(C)cc4c3)cc3[nH]nc(C4CC4)c32)cc1
logD [1]: 2.8 | hepatocyte CLint [2]: 3 µL/min/1e6 cells

C[C@@H](O)c1ccc(-n2c(=O)c(-c3ccc4nn(C)cc4c3)cc3[nH]nc(C4CC4)c32)cc1
logD [1]: 2.4 | hepatocyte CLint [2]: 5 µL/min/1e6 cells

COc1ccc(-c2cc3[nH]nc(C4CC4)c3n(-c3ccc(OC(F)F)cc3)c2=O)cc1
logD [1]: 4 | hepatocyte CLint [2]: 7 µL/min/1e6 cells

Cn1cc2cc(-c3cc4[nH]nc(C5CC5)c4n(-c4ccc(CCO)cc4)c3=O)ccc2n1
logD [1]: 2.3 | hepatocyte CLint [2]: 4 µL/min/1e6 cells

[O-][n+]1ccc2[nH]nc(C3CC3)c2c1-c1ccc(OC(F)F)cc1
logD [1]: 1.6 | hepatocyte CLint [2]: < 1 µL/min/1e6 cells | microsomal CLint [3]: < 3 µL/min/mg

Cc1n[nH]c2cc(-c3ccc4nn(C)cc4c3)c(=O)n(-c3ccc(OC(F)F)cc3)c12
logD [1]: 3 | hepatocyte CLint [2]: < 1 µL/min/1e6 cells

From ChEMBL document CHEMBL5518219, “Development of a Series of Pyrrolopyridone MAT2A Inhibitors” (J Med Chem, 2024)
